Columns and labels:
[1] = system: lymphoid leukemia L1210 cells; assay: Inhibition of proliferation of cultured lymphoid leukemia L1210 cells (48 hours); assay type: cell-based; details: read-out: L1210 ID50 (concentration of agent that inhibits proliferation of cultured lymphoid leukemia L1210 cells to 50% control growth during 48 hours)
Protocol: ^a Concentration of agent that inhibits proliferation of cultured
lymphoid leukemia L1210 cells to 50% control growth during 48 hours
[Wheeler, G. P., Bowdon, B. J., Werline, J. A., Adamson, D. J., and
Temple, C., Jr., Cancer Research, 1982, 42, 791].

[2] = system: lymphoid leukemia L1210 cells; assay: Mitotic index (fraction of cells in mitosis) of cultured lymphoid leukemia L1210 cells, 12 hours exposure; assay type: cell-based; details: Mus musculus, exposure period of 12 hours, read-out: L1210 MI0.5 (concentration of agent that causes a mitotic index of 0.5)
Protocol: ^b Concentration of agent that causes a mitotic index (fraction of
cells in mitosis divided by total cells) of 0.5 for cultured lymphoid
leukemia L1210 cells during an exposure period of 12 hours [Wheeler, G.
P., Bowden, B. J., Werline, J. A., Adamson, D. J., and Temple, C., Jr.,

[3] = system: Lymphocytic leukemia P388; assay: Increase in life span, lymphocytic leukemia P388, 10^6 tumor cell implant, i.p.; assay type: in vivo; details: Mus musculus, P388, ip, schedule 1-5, read-out: P388 % ILS (increase in life span at the highest nontoxic dose)
From the text: ^c Lymphocytic leukemia P388.
^d Increase in life span at the highest nontoxic dose.

CCOC(=O)Nc1cc2c(c(N)n1)N=C(c1ccc(OC)cc1)CS2 [n]
IC50 [1]: 340 nM
EC (mitotic index 0.5) [2]: 4.9 µM
ILS at 300 mg/kg [3]: 3%

CCOC(=O)Nc1cc2c(c(N)n1)N=C(c1ccccc1)C(c1ccccc1)O2 (stereo not shown) [c]
IC50 [1]: 880 nM
EC (mitotic index 0.5) [2]: 3 µM
ILS at 200 mg/kg [3]: 2%

CCOC(=O)Nc1cc2c(c(NC(=O)CBr)n1)N=C(c1ccccc1)CO2 [q]
IC50 [1]: 2200 nM
EC (mitotic index 0.5) [2]: 11 µM

CCOC(=O)Nc1cc2c(c(N=CN(C)C)n1)N=C(c1ccccc1)CO2 [p]
IC50 [1]: 310 nM
EC (mitotic index 0.5) [2]: 0.78 µM

CCOC(=O)Nc1cc2c(c(N)n1)N=C(c1ccc(Cl)cc1)CO2 [h]
IC50 [1]: > 3000 nM
ILS at 300 mg/kg [3]: 0%

CCOC(=O)Nc1cc2c(c(N)n1)N=C(c1cc(OC)c(OC)c(OC)c1)CO2 [g]
IC50 [1]: > 3000 nM
ILS at 300 mg/kg [3]: 0%

CCOC(=O)Nc1cc2c(c(N)n1)N=C1c3ccccc3CCC1O2 (stereo not shown) [d]
IC50 [1]: > 300 nM
ILS at 300 mg/kg [3]: 32%

CCOC(=O)Nc1cc2c(c(N)n1)N=C(c1ccc3ccccc3c1)CS2 [o]
IC50 [1]: 580 nM
EC (mitotic index 0.5) [2]: 3 µM
ILS at 300 mg/kg [3]: 5%

CCOC(=O)Nc1cc2c(c(N)n1)N=C(c1ccccc1)CO2 [a]
IC50 [1]: 225 nM
EC (mitotic index 0.5) [2]: 0.56 µM
ILS at 100 mg/kg [3]: 44%
ILS at 200 mg/kg [3]: 80%

CCOC(=O)Nc1cc2c(c(N)n1)N=C(c1ccccc1)CS2 [j]
IC50 [1]: 6100 nM
EC (mitotic index 0.5) [2]: 10 µM
ILS at 300 mg/kg [3]: 0%

CCOC(=O)Nc1cc2c(c(N)n1)N=C(c1cccc(OC)c1)CS2 [m]
IC50 [1]: 530 nM
EC (mitotic index 0.5) [2]: 2 µM
ILS at 75 mg/kg ([3]; 75 mg/kg): 3%

CCOC(=O)Nc1cc2oc(=O)c(-c3ccccc3)nc2c(N)n1 [e]
IC50 [1]: > 3000 nM
ILS at 300 mg/kg [3]: 0%

CCOC(=O)Nc1cc2c(c(N)n1)N=C(c1ccccc1)C(C)(C)S2 [l]
IC50 [1]: > 10000 nM

CCOC(=O)Nc1cc2c(c(N)n1)N=C(c1ccc([N+](=O)[O-])cc1)CO2 [i]
IC50 [1]: > 3000 nM
ILS at 300 mg/kg [3]: 0%

CCOC(=O)Nc1cc2c(c(N)n1)N=C(c1cccc(OC)c1)CO2 [f]
IC50 [1]: 52 nM
EC (mitotic index 0.5) [2]: 0.1 µM
ILS at 50 mg/kg ([3]; 50 mg/kg): 73%

CCOC(=O)Nc1cc2c(c(N)n1)N=C(c1ccccc1)C(C)O2 (stereo not shown) [b]
IC50 [1]: 110 nM
EC (mitotic index 0.5) [2]: 0.49 µM
ILS at 100 mg/kg [3]: 50%

CCOC(=O)Nc1cc2c(c(N)n1)N=C(c1ccccc1)C(C)S2 (stereo not shown) [k]
IC50 [1]: 1600 nM
EC (mitotic index 0.5) [2]: 9.6 µM
ILS at 150 mg/kg ([3]; 150 mg/kg): 10%

Source: patent US4451650A, “Pyrido[4,3-b][1,4]oxazines and pyrido[4,3-b][1,4]thiazines” (Southern Research Institute, priority 1982, dated 1984)
